Experimental data reported in US7141606B2, “Gabapentin analogues for sleep disorders” (Warner-Lambert Company, priority 2000, dated 2006).

Tested on: Male Sprague-Dawley rats
Assay: EEG/EMG sleep recording in rats: time in NREMS for 12 hours after PO dosing
Type: in vivo, rat
Conditions: for Total Minutes (Mean ± SEM) NREMS for 12-Hour Postinjection: rats, N = 8/Treatment, just prior to onset of light phase
Method: Male Sprague-Dawley rats weighing 250 to 360 g were used for the experiment. The rats were kept on a 12:12-hr light/dark cycle (lights on at 0900) at 23±1° C. ambient temperature. They had free access water and food during the experiment. Stainless steel jewelry screws for EEG recording were placed over the frontal and parietal cortices. An EMG electrode was implanted in the dorsal neck muscles.
Recording and analyses. After the recovery period (at least 1 week), rats were moved to sleep recording chambers. The rats were allowed relatively unrestricted movement inside the recording cages. A flexible tether connected the electrodes led to an electronic swivel. The leads from the swivel were routed to Grass Model No. 7D polygraphs in an adjacent room for recording EEG and EMG activity. The vigilance states of wakefulness, nonrapid-eye-movement sleep (NREMS), and rapid-eye-movement sleep (REMS) were determined offline in 10 second epochs. The amount of time spent in each vigilance state was calculated every hour and totaled for the 12-hour period post injection. Drug or vehicle were administered PO just prior to the onset of the light phase of the rat's light/dark cycle. Each rat received a vehicle and one drug dose. Results

| Compound | Total Minutes (Mean ± SEM) NREMS for 12-Hour Postinjection (3 mg/kg PO) [min] | Total Minutes (Mean ± SEM) NREMS for 12-Hour Postinjection (10 mg/kg PO) [min] | Total Minutes (Mean ± SEM) NREMS for 12-Hour Postinjection (30 mg/kg PO) [min] | Effect on NREMS in rats during the 12-hour period following injection (rats, 3, 10, and 30 mg/kg PO) | Total Minutes (Mean ± SEM) NREMS for 12-Hour Postinjection (1 mg/kg PO) [min] | Effect on NREMS in rats during the 12-hour period following injection (rats, 1, 3, and 20 mg/kg PO) |
| --- | --- | --- | --- | --- | --- | --- |
| C[C@H]1CC(CN)(CC(=O)O)C[C@@H]1C [Compound 1] | 401 ± 8 | 409 ± 12 | 424 ± 6 | significantly increased NREMS | – | – |
| CCC[C@@H](C)C[C@H](CN)CC(=O)O [Compound 2, (3S, 5R)-3-Aminomethyl-5-methyl-octanoic acid] | 451 ± 9 | 481 ± 6 | – | – | 432 ± 8 | significantly increased NREMS |
